Source: patent publication US10682328B2, “Compositions and methods for treatment of retinal degenerative diseases” (MOR RESEARCH APPLICATIONS LTD., priority 2014, dated 2020)

Experiments:
Type in all cases: cell-based, human
[1] = tested on: RPE cells; assay: SA-β-gal staining (senescence marker)
[2] = tested on: RPE cells (ARPE-19); assay: Annexin and propidium iodide double-staining FACS assay of RPE cells (apoptosis)
Method: (§1) Double-staining (annexin and propidium iodide (PI)) assay of RPE cells. RPE cells (ARPE-19, available from ATCC) were treated for one hour with the TAK1 inhibitor {5Z-7-oxozeaenol (1 μM)}, following 200 μM H2O2 for one hour or left untreated. The cells were then washed with fresh medium and after 24 hours were trypsinized, stained, and analyzed by FACS. The percentage of cells in each cell-cycle phase (G1/G0, S, and G2/M) was determined by its DNA content (FL2A).
The role of TAK1 in the inflammatory response is characterized (12, 13), but little is known about its participation in the response of RPE cells to stress. RPE cells were treated with the TAK1 inhibitor 5Z-7-oxozeaenol (1 μM) for 1 hour before further treatment with H2O2 (200 μM). […] In contrast, in cells treated with the TAK1 inhibitor prior to their treatment with H2O2 the number apoptotic cells was 24% (FIG. 1A). The number of cells in the late apoptosis section of each FACS chart (annexin and Pi, upper right panel) was similar with or without TAK1 inhibitor.

[3] = tested on: RPE cells (ARPE-19); assay: FACS cell-cycle phase analysis by DNA content (FL2A)
Method: as §1
To examine the effect of TAK1 inhibition on the RPE cell cycle, RPE cells were treated with TAK1 inhibitor, with or without H2O2. The RPE cells are quiescent and mostly located at the G0/G1 stage (FIGS. 1B and 1C), however, following TAK1 inhibition the percentage of cells at the G0/G1 stage increased to 89% of the total number. […] This phenomenon was reduced upon TAK1 inhibition prior to the oxidative stress (FIGS. 1B and C). The Cell cycle arrest at G0/G1 upon TAK1-inhibition was further supported by the reduction in proliferation of RPE cells observed in the presence of the TAK1 inhibitor (FIG. 1D).

[4] = tested on: RPE cells; assay: Conditioned media (SASP) applied on fresh RPE cells, morphology
Method: FIG. 5 presents photographs showing that TAK1 inhibition contributes to the SASP of the RPE cells, causing hypertrophy and dysfunction. RPE cells were grown with the TAK1 inhibitor and/or H2O2 ([…]) or without treatment. After 2 weeks, conditioned media from the differently treated cells were centrifuge and the supernatants was employed on new freshly cells. Representative photographs of fresh RPE cells treated for 72 hours with the indicated conditioned media are shown. Scale bar=50 μm.
The most significant effect of senescence, is the acquisition of a senescence-associated secretory phenotype (SASP). SASP can convert senescent cells to proinflammatory cells that promote the secretion of chemokines and cytokines that can affect the microenvironment, including in the human retina (16, 17). To examine the role of TAK1 in this process, RPE cells were treated with TAK1 inhibitor or with H2O2, alone or in combination. After 2 weeks, the media was collected from the three separate treatments, centrifuged and the supernatants (conditioned media) were applied on fresh RPE cells for 72 hours.

[5] = tested on: ARPE-19 cells; assay: XTT cell viability / proliferation assay
Method: Cell viability assays ARPE-19 cells were seeded in 96-well plates (5000 cells/well) in full medium and were pretreated with the TAK1 inhibitor 5Z-7-oxozeaenol (1 μM) or left untreated for 1 hour. Their viability was then assayed by the XTT assay (cell proliferation kit cat #20-300-1000; Beit Haemek, Israel).

[6] = tested on: RPE cells; assay: Anisomycin toxicity to RPE cells (cellular morphology 72 hours post-treatment); settings: low levels, 5 minute treatment
Method: To determine possible toxicity of anisomycin to RPE cells, RPE cells were treated with anisomycin at different concentration for 5 minute periods. Following treatment, the medium was replaced and fresh medium was added. 72 hours post-treatment, the cells were photographed. […] Their viability was then assayed by the XTT assay.

[7] = tested on: p53, phospho-p38; assay: Western blot of p53 and phospho-p38 in RPE cells under oxidative stress
Method: Western blot analysis was performed by standard protocols (11), p53, p38, phospho-p38, GADPH, and TAK1; antibodies were obtained from Enco, Israel.
The p53 protein is known to play a critical role in cell-cycle regulation, DNA repair, and programmed cell death (14, 15). In view of this knowledge, and given the above-described observation that TAK1 inhibition reduced apoptosis, the expression of p53 in RPE cells was examined.

[8] = tested on: RPE cells; assay: RPE cell size quantification (hypertrophy); settings: oxidative stress with TAK-1 inhibition; N=40 cells
Method: N=40 cells for each treatment. One of the hallmarks of RPE senescence is cellular hypertrophy. RPE cell size is approximately […]; but upon oxidative stress or genetic mutation RPE cells can undergo enlargement.

[9] = medium from cells treated 2 weeks with the single agent

CC1=C(/C=C/C(C)=C/C=C/C(C)=C/c2cc(/C=C/C=C(C)/C=C/C3=C(C)CCCC3(C)C)cc[n+]2CCO)C(C)(C)CCC1 [A2E]
senescent phenotype ([1]; A2E 5 μM added to cultured RPE cells): increases the senescent phenotype

OO [H2O2]
number of apoptotic cells as a percentage of the total number ([2]; H2O2 alone (200 μM), untreated cells 1.25%): 31%
G2/M arrest ([3]; H2O2 treatment alone): high levels of G2/M arrest
phenotype of fresh RPE cells after 72 hours with conditioned medium [4, 9]: hypertrophic phenotype similar to that of senescent cells

COc1ccc(C[C@H]2NC[C@H](O)[C@H]2OC(C)=O)cc1 [anisomycin, (2R,3S,4S)-4-hydroxy-2-(4-methoxybenzyl)-pyrrolidin-3-yl acetate]
rate of cell proliferation ([5]; oxidative stress and anisomycin): did not display reduction
number of SA-β-Gal positive cells ([1]; H2O2 1 hour, 10 days growth, anisomycin 10 ng/ml 5 min, five more days, versus untreated cells exposed to oxidative stress): reduces the number of SA-β-Gal positive cells
toxicity to RPE cells [6]: not toxic

COc1cc(O)c2c(c1)/C=C/C[C@H](O)[C@H](O)C(=O)/C=C\C[C@H](C)OC2=O [5Z-7-oxozeaenol]
number of apoptotic cells as a percentage of the total number ([2]; TAK1 inhibitor 1 μM 1 hour prior to H2O2 200 μM, FACS after 24 hours): 24%
G2/M arrest under oxidative stress ([3]; TAK1 inhibition prior to H2O2 treatment): reduced
percentage of cells at the G0/G1 stage ([3]; TAK1 inhibitor 1 μM, without H2O2): 89%
proliferation rate (optical density) ([5]; 5Z-7-oxozeaenol 1 μM pretreatment 1 hour, versus untreated cells peaking on day 4): slower proliferation rate
number of cells expressing SA-β-gal ([1]; TAK1 inhibitor alone, relative to untreated cells): dramatically increased
SA-β-gal expression ([1]; TAK1 inhibitor pretreatment then oxidative stress (200 μM H2O2 1 hour), days 13 and 16): strongly increased
p53 expression levels over a longer period ([7]; TAK1 inhibition, days): reduced p53 expression levels slightly more than the untreated cells
p38 phosphorylation ([7]; TAK1 inhibitor 1 μM pretreatment, oxidative stress): inhibition of p38 phosphorylation
time of p53 expression peak ([7]; pretreated with TAK1 inhibitor 1 μM, oxidative stress, control peak after 60 min): 10 min
phenotype of fresh RPE cells after 72 hours with conditioned medium [4, 9]: hypertrophic phenotype similar to that of senescent cells
phenotype of fresh RPE cells after 72 hours with conditioned medium ([4]; medium from cells treated with both TAK1 inhibitor and H2O2): aberrant morphology similar to that of atrophic RPE cells
cell size [8]: increases cell size
